pIC50: −log10 of the molar value.
Tests used:
[1] = target: T1, Tyrosine-protein kinase JAK2 (Homo sapiens, UniProt O60674); format: ADME
Description: Inhibition of recombinant human JAK2 (808-end residues) in presence of ATP

[2] = target: Tyrosine-protein kinase JAK1 (Homo sapiens, UniProt P23458)
Description: Inhibition of recombinant human JAK1 (866-end residues) in presence of ATP

[3] = in vitro; settings: mouse, microsomes
Description: Metabolic stability in mouse liver microsomes assessed as parent compound remaining after 30 mins

[4] = in vitro; settings: rat, microsomes
Description: Metabolic stability in rat liver microsomes assessed as parent compound remaining after 30 mins

[5] = in vitro; settings: human, microsomes
Description: Metabolic stability in human liver microsomes assessed as parent compound remaining after 30 mins

[6] = in vitro; settings: dog, microsomes
Description: Metabolic stability in dog liver microsomes assessed as parent compound remaining after 30 mins

[7] = in vivo; settings: beagle, dog, iv, 3 mg/kg
[8] = in vivo; settings: Sprague-Dawley, rat, iv, 5 mg/kg
Description: Half life in Sprague-Dawley rat at 5 mg/kg, iv by LC-MS/MS analysis

[9] = in vivo; settings: Sprague-Dawley, rat, po, 10 mg/kg
[10] = in vivo; settings: ICR, mouse, po, 10 mg/kg
Description: Half life in ICR mouse at 10 mg/kg, po by LC-MS/MS analysis

[11] = in vitro; settings: rat, plasma
Description: Metabolic stability in rat plasma assessed as parent compound remaining after 30 mins

[12] = target: CYP2C9 (Homo sapiens, UniProt P11712); test: in vitro
CYP2C9, sequence (P11712 whole entry): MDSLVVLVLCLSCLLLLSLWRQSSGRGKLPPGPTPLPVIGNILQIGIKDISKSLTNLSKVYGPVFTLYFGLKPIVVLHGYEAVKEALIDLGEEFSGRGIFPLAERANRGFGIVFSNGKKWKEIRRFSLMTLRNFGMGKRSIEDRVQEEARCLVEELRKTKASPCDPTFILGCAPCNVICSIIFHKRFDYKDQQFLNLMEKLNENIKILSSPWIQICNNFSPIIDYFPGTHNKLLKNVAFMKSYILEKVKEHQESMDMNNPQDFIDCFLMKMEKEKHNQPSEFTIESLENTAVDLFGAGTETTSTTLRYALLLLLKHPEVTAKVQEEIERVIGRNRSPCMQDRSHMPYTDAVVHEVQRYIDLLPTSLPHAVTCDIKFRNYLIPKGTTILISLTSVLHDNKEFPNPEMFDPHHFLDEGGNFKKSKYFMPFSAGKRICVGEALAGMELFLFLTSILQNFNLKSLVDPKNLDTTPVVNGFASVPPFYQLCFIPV
Description: Inhibition of CYP2C9 (unknown origin) assessed as residual activity at 10 uM relative to control

[13] = in vivo; settings: beagle, dog, po, 5 mg/kg
Description: AUC (0 to infinity) in Beagle dog at 5 mg/kg, po by LC-MS/MS analysis

[14] = in vivo; settings: beagle, dog, po, 5 mg/kg; remark: listed apart in the source
Description: Tmax in Beagle dog at 5 mg/kg, po by LC-MS/MS analysis

[15] = in vivo; settings: ICR, mouse, po, 10 mg/kg; remark: listed apart in the source
[16] = in vivo; settings: Sprague-Dawley, rat, po, 10 mg/kg; remark: listed apart in the source
[17] = in vivo; settings: beagle, dog, iv, 3 mg/kg; remark: listed apart in the source
Description: Half life in Beagle dog at 3 mg/kg, iv by LC-MS/MS analysis

[18] = in vivo; settings: ICR, mouse, po, 10 mg/kg; remark: listed apart in the source
[19] = in vitro; settings: rat, plasma; remark: listed apart in the source
Description: Protein binding in rat plasma

[20] = in vivo; settings: beagle, dog, iv, 3 mg/kg; remark: listed apart in the source
[21] = in vivo; settings: Sprague-Dawley, rat, iv, 5 mg/kg; remark: listed apart in the source
Description: AUC (0 to infinity) in Sprague-Dawley rat at 5 mg/kg, iv by LC-MS/MS analysis

[22] = target: CYP2D6 (Homo sapiens, UniProt P10635); test: in vitro
CYP2D6, sequence (P10635 whole entry): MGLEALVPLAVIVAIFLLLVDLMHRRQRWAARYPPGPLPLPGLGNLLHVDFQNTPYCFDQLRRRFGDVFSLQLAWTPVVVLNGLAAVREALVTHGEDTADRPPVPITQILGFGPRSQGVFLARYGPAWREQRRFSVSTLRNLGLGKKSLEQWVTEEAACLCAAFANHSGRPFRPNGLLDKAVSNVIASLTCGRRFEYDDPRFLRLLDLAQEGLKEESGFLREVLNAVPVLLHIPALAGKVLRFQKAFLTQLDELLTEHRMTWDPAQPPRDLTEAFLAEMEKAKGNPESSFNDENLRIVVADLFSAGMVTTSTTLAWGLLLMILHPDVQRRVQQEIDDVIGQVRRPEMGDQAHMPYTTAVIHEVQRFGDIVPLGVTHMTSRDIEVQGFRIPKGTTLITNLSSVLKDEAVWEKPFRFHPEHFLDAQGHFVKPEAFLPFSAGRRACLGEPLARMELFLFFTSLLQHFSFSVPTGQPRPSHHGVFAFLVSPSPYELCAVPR
Description: Inhibition of CYP2D6 (unknown origin) assessed as residual activity at 10 uM relative to control

[23] = in vivo; settings: beagle, dog, iv, 3 mg/kg; remark: listed apart in the source
Description: MRT in Beagle dog at 3 mg/kg, iv by LC-MS/MS analysis

[24] = in vivo; settings: Sprague-Dawley, rat, iv, 5 mg/kg; remark: listed apart in the source
Description: AUC (0 to t) in Sprague-Dawley rat at 5 mg/kg, iv by LC-MS/MS analysis

[25] = target: Voltage-gated inwardly rectifying potassium channel KCNH2 (Homo sapiens, UniProt Q12809)
Description: Inhibition of human ERG expressed in HEK293 cells by automated patch clamp method

[26] = in vivo; settings: Sprague-Dawley, rat, po, 10 mg/kg; remark: listed apart in the source
Description: Half life in Sprague-Dawley rat at 10 mg/kg, po by LC-MS/MS analysis

[27] = in vivo; settings: Sprague-Dawley, rat, po, 10 mg/kg; remark: listed apart in the source
[28] = in vivo; settings: ICR, mouse, iv, 5 mg/kg
Description: MRT in ICR mouse at 5 mg/kg, iv by LC-MS/MS analysis

[29] = in vitro; settings: human, Caco-2
[30] = in vitro; settings: human, plasma
Description: Metabolic stability in human plasma assessed as parent compound remaining after 30 mins

[31] = in vivo; settings: Sprague-Dawley, rat, po, 10 mg/kg; remark: listed apart in the source
[32] = target: T2, CYP1A2 (Homo sapiens, UniProt P05177); test: in vitro
T2 sequence (P05177 whole entry): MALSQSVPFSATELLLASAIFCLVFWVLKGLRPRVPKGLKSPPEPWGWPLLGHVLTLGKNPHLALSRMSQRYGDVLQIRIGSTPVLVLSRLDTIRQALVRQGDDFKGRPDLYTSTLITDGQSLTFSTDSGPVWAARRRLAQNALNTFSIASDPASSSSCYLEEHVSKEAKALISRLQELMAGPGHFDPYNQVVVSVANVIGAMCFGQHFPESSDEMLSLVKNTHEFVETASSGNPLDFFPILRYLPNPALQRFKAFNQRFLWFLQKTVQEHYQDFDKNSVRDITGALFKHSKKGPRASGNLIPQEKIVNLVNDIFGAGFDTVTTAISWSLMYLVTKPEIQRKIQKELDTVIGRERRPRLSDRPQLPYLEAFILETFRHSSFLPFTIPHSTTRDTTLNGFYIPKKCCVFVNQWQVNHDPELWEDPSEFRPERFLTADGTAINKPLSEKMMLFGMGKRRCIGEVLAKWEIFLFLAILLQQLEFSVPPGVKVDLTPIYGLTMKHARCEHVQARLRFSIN
Description: Inhibition of CYP1A2 (unknown origin) assessed as residual activity at 10 uM relative to control

[33] = in vivo; settings: ICR, mouse, po, 10 mg/kg; remark: listed apart in the source
[34] = target: CYP3A4 (Homo sapiens, UniProt P08684); test: in vitro
CYP3A4, sequence (P08684 whole entry): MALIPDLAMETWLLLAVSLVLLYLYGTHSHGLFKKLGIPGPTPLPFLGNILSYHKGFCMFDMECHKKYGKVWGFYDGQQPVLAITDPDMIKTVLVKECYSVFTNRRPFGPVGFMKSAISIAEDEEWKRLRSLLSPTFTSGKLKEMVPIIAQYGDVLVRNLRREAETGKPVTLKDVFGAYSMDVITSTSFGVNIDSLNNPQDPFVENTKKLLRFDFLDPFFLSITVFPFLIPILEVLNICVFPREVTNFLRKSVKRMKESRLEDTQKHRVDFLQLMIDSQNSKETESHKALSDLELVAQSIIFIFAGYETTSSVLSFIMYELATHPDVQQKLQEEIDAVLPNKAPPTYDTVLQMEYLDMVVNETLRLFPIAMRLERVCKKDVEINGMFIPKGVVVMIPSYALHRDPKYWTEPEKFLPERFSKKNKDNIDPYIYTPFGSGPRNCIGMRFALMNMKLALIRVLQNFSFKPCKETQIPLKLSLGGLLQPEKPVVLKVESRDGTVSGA
Description: Inhibition of CYP3A4 (unknown origin) assessed as residual activity at 10 uM relative to control

[35] = in vivo; settings: beagle, dog, po, 5 mg/kg; remark: listed apart in the source
Description: MRT in Beagle dog at 5 mg/kg, po by LC-MS/MS analysis

[36] = target: CYP2C19 (Homo sapiens, UniProt P33261); test: in vitro
CYP2C19, sequence (P33261 whole entry): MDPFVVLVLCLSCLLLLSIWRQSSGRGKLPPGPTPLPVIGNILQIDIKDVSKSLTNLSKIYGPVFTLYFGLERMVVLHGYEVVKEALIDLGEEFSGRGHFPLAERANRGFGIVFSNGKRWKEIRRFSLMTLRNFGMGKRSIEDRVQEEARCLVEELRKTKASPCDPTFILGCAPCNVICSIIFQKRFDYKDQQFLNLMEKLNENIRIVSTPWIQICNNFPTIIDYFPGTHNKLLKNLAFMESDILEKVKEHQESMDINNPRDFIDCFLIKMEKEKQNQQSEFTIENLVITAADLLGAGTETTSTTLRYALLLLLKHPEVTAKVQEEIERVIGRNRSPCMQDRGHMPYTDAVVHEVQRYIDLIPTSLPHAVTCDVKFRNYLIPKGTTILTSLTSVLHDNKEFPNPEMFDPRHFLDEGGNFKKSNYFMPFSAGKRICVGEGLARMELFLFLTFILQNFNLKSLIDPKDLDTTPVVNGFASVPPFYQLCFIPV
Description: Inhibition of CYP2C19 (unknown origin) assessed as residual activity at 10 uM relative to control

[37] = in vivo; settings: beagle, dog, po, 5 mg/kg; remark: listed apart in the source
Description: AUC (0 to t) in Beagle dog at 5 mg/kg, po by LC-MS/MS analysis

[38] = in vitro; settings: human, plasma; remark: listed apart in the source
Description: Protein binding in human plasma

[39] = organism: Mus musculus; settings: in vivo, po, 10 mg/kg
[40] = in vitro; settings: rat, plasma; remark: listed apart in the source
Description: Metabolic stability in rat plasma assessed as parent compound remaining after 120 mins

[41] = in vivo; settings: ICR, mouse, po, 10 mg/kg; remark: listed apart in the source
Description: MRT in ICR mouse at 10 mg/kg, po by LC-MS/MS analysis

[42] = in vivo; settings: ICR, mouse, iv, 5 mg/kg; remark: listed apart in the source
Description: AUC (0 to infinity) in ICR mouse at 5 mg/kg, iv by LC-MS/MS analysis

[43] = in vivo; settings: beagle, dog, po, 5 mg/kg; remark: listed apart in the source
Description: Cmax in Beagle dog at 5 mg/kg, po by LC-MS/MS analysis

[44] = target: T1, Tyrosine-protein kinase JAK2; settings: read-out: INH
Description: Inhibition of recombinant human JAK2 (808-end residues) at 10 uM in presence of ATP relative to control

[45] = in vivo; settings: ICR, mouse, po, 10 mg/kg; remark: listed apart in the source
[46] = in vitro; settings: human, Caco-2; remark: listed apart in the source
[47] = in vivo; settings: beagle, dog, po, 5 mg/kg; remark: listed apart in the source
Description: Half life in Beagle dog at 5 mg/kg, po by LC-MS/MS analysis

[48] = in vivo; settings: ICR, mouse, iv, 5 mg/kg; remark: listed apart in the source
Description: Half life in ICR mouse at 5 mg/kg, iv by LC-MS/MS analysis

[49] = in vivo; settings: Sprague-Dawley, rat, iv, 5 mg/kg; remark: listed apart in the source
Description: MRT in Sprague-Dawley rat at 5 mg/kg, iv by LC-MS/MS analysis

[50] = in vivo; settings: ICR, mouse, iv, 5 mg/kg; remark: listed apart in the source
Description: AUC (0 to t) in ICR mouse at 5 mg/kg, iv by LC-MS/MS analysis

[51] = in vitro; settings: human, plasma; remark: listed apart in the source
Description: Metabolic stability in human plasma assessed as parent compound remaining after 120 mins

[52] = organism: Canis familiaris; settings: dog, in vivo, po, 5 mg/kg
Description: Oral bioavailability in Beagle dog at 5 mg/kg by LC-MS/MS analysis

[53] = in vivo; settings: Sprague-Dawley, rat, po, 10 mg/kg; remark: listed apart in the source
Description: MRT in Sprague-Dawley rat at 10 mg/kg, po by LC-MS/MS analysis

Tyrosine-protein kinase JAK1, sequence (P23458 whole entry): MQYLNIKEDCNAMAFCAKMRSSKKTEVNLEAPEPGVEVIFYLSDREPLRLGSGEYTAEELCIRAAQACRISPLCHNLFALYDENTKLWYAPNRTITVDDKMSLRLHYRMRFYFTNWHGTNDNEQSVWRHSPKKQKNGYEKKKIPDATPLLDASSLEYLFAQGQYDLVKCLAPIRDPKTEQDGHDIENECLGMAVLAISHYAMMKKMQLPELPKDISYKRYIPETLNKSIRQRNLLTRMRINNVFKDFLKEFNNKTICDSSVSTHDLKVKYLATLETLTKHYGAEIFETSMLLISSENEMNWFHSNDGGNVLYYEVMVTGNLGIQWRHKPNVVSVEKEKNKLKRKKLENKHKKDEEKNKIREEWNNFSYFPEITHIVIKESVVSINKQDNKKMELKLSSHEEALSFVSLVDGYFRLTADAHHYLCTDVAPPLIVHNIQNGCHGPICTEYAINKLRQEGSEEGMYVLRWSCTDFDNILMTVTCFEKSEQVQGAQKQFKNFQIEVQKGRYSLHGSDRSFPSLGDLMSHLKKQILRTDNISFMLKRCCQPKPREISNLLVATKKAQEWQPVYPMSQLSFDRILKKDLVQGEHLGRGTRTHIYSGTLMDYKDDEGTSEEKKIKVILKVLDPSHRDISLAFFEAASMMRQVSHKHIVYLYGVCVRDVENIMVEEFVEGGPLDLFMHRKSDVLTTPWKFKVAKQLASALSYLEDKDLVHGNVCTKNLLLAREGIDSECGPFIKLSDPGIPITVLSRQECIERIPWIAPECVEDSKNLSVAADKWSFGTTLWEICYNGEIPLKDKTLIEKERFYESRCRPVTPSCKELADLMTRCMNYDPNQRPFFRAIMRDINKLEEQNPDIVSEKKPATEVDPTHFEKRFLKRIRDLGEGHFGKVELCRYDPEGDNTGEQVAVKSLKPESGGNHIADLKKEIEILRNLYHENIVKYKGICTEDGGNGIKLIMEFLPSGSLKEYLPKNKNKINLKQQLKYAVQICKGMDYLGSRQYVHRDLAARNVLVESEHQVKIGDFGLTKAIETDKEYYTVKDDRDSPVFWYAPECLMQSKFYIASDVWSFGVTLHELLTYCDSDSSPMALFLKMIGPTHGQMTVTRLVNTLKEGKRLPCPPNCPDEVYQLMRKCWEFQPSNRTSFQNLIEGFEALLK
T1 sequence (O60674 whole entry): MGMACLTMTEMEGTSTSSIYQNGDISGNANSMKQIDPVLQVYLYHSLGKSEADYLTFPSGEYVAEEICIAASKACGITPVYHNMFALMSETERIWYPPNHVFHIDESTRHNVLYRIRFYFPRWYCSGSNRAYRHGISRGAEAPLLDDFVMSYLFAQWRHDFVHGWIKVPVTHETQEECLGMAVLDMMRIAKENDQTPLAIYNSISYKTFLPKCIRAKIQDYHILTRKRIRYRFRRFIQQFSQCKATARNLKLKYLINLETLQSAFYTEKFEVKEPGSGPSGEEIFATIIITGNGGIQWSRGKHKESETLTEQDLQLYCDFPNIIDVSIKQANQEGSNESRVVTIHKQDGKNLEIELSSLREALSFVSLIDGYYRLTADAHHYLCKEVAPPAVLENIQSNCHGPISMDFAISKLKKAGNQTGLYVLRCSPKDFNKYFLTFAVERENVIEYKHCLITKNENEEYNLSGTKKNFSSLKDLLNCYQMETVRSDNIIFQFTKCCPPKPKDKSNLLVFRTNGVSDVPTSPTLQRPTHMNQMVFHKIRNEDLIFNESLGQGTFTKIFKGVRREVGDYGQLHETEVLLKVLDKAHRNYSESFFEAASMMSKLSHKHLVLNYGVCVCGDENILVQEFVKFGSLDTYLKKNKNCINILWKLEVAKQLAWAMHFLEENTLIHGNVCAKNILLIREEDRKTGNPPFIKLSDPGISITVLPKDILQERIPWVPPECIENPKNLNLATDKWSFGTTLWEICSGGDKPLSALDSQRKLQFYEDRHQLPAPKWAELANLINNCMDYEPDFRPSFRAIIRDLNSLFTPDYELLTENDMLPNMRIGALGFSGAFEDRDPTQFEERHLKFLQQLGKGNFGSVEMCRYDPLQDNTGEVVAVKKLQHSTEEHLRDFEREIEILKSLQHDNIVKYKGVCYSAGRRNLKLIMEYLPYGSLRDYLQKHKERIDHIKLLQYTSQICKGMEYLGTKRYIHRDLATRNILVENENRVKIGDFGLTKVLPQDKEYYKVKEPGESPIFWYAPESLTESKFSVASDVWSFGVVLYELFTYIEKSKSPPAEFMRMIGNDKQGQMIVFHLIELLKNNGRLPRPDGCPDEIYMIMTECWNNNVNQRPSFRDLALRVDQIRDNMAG

Q: With `N#Cc1cccc(S(=O)(=O)N2CC[C@@H](Nc3ncnc4[nH]ccc34)C2)c1` as the compound, how does the pIC50 [1] read?
A: The pIC50 was 5.72.

Q: And the pIC50 [2]?
A: Its pIC50 is 6.29.

Q: Which results are given for `CN(c1ncnc2[nH]ccc12)[C@@H]1CCN(S(=O)(=O)c2cccc([N+](=O)[O-])c2)C1`?
A: remaining at 0.5 h [3]: 3.1%; pIC50 [1]: 7.74; pIC50 [2]: 8.72; remaining at 0.5 h [4]: 2.5%; remaining at 0.5 h [5]: 13.4%; remaining at 0.5 h [6]: 10.4%

Q: With `CCCCN1CC[C@@H](N(C)c2ncnc3[nH]ccc23)C1` as the compound, how does the pIC50 [1] read?
A: Its pIC50 is 4.57.

Q: What about the pIC50 [2] of the same compound?
A: The pIC50 was 6.13.

Q: Which AUC(0-t) [7] does the source give for `CN(c1ncnc2[nH]ccc12)[C@@H]1CCN(C(=O)CC#N)C1` here?
A: Its AUC(0-t) is 2100 ng·h/mL.

Q: What about the half-life [8] of the same compound?
A: Its half-life is 0.7 h.

Q: And the Tmax [9]?
A: The Tmax was 0.3 h.

Q: And the half-life [10]?
A: The half-life was 2.1 h.

Q: And the remaining at 0.5 h [11]?
A: Its remaining at 0.5 h is over 100%.

Q: And the activity at 10 µM [12]?
A: Its activity at 10 µM is over 100%.

Q: And the AUC(0-inf) [13]?
A: Its AUC(0-inf) is 6500 ng·h/mL.

Q: And the Tmax [14]?
A: Its Tmax is 1.1 h.

Q: What about the Tmax [15] of the same compound?
A: The Tmax was 0.3 h.

Q: And the AUC(0-inf) [16]?
A: Its AUC(0-inf) is 4300 ng·h/mL.

Q: What about the half-life [17] of the same compound?
A: The half-life was 1.6 h.

Q: What about the AUC(0-inf) [18] of the same compound?
A: Its AUC(0-inf) is 2100 ng·h/mL.

Q: And the fraction unbound [19]?
A: Its fraction unbound is 0.823.

Q: And the AUC(0-inf) [20]?
A: Its AUC(0-inf) is 2200 ng·h/mL.

Q: And the AUC(0-inf) [21]?
A: Its AUC(0-inf) is 950 ng·h/mL.

Q: What about the activity at 10 µM [22] of the same compound?
A: Its activity at 10 µM is over 100%.

Q: What about the MRT [23] of the same compound?
A: Its MRT is 2.4 h.

Q: And the AUC(0-t) [24]?
A: Its AUC(0-t) is 930 ng·h/mL.

Q: And the remaining at 0.5 h [3]?
A: The remaining at 0.5 h was over 100%.

Q: What about the pIC50 [25] of the same compound?
A: The pIC50 was 4.03.

Q: And the half-life [26]?
A: The half-life was 2.1 h.

Q: And the Cmax [27]?
A: The Cmax was 1900 ng/mL.

Q: What about the MRT [28] of the same compound?
A: Its MRT is 1.4 h.

Q: What about the Papp B→A [29] of the same compound?
A: Its Papp B→A is 7.7 ×10⁻⁶ cm/s.

Q: What about the remaining at 0.5 h [30] of the same compound?
A: The remaining at 0.5 h was 96.3%.

Q: What about the AUC(0-t) [31] of the same compound?
A: Its AUC(0-t) is 4100 ng·h/mL.

Q: What about the activity at 10 µM [32] of the same compound?
A: Its activity at 10 µM is 89.3%.

Q: And the AUC(0-t) [33]?
A: Its AUC(0-t) is 1900 ng·h/mL.

Q: What about the activity at 10 µM [34] of the same compound?
A: The activity at 10 µM was 98.2%.

Q: And the MRT [35]?
A: Its MRT is 3.1 h.

Q: What about the remaining at 0.5 h [4] of the same compound?
A: The remaining at 0.5 h was 92.8%.

Q: What about the activity at 10 µM [36] of the same compound?
A: The activity at 10 µM was 91.8%.

Q: And the AUC(0-t) [37]?
A: Its AUC(0-t) is 6400 ng·h/mL.

Q: What about the fraction unbound [38] of the same compound?
A: The fraction unbound was 0.853.

Q: What about the F [39] of the same compound?
A: The F was 190%.

Q: What about the remaining at 2 h [40] of the same compound?
A: The remaining at 2 h was over 100%.

Q: What about the MRT [41] of the same compound?
A: The MRT was 3.1 h.

Q: What about the AUC(0-inf) [42] of the same compound?
A: Its AUC(0-inf) is 680 ng·h/mL.

Q: What about the remaining at 0.5 h [5] of the same compound?
A: Its remaining at 0.5 h is 97.6%.

Q: What about the Cmax [43] of the same compound?
A: Its Cmax is 1900 ng/mL.

Q: And the inhibition at 10 µM [44]?
A: Its inhibition at 10 µM is over 90%.

Q: What about the remaining at 0.5 h [6] of the same compound?
A: Its remaining at 0.5 h is 92.8%.

Q: What about the Cmax [45] of the same compound?
A: Its Cmax is 1000 ng/mL.

Q: And the Papp A→B [46]?
A: The Papp A→B was 3.8 ×10⁻⁶ cm/s.

Q: What about the half-life [47] of the same compound?
A: Its half-life is 1.7 h.

Q: And the half-life [48]?
A: Its half-life is 0.9 h.

Q: And the MRT [49]?
A: Its MRT is 0.9 h.

Q: What about the AUC(0-t) [50] of the same compound?
A: Its AUC(0-t) is 510 ng·h/mL.

Q: What about the remaining at 2 h [51] of the same compound?
A: Its remaining at 2 h is 99.8%.

Q: And the F [52]?
A: Its F is 180%.

Q: And the MRT [53]?
A: Its MRT is 2.9 h.

Q: With `CN(c1ncnc2[nH]ccc12)[C@@H]1CCN(S(=O)(=O)c2ccccc2[N+](=O)[O-])C1` as the compound, how does the pIC50 [1] read?
A: Its pIC50 is 5.96.

Q: And the pIC50 [2]?
A: Its pIC50 is 6.96.

Q: Which results are given for `CC(C)S(=O)(=O)N1CC[C@@H](N(C)c2ncnc3[nH]ccc23)C1`?
A: pIC50 [1]: 5.32; pIC50 [2]: 6.77

Q: With `CN(c1ncnc2[nH]ccc12)[C@@H]1CCN(CCC#N)C1` as the compound, how does the pIC50 [1] read?
A: Its pIC50 is 5.72.

Q: And the pIC50 [2]?
A: The pIC50 was 7.28.

Q: With `N#CCC(=O)N1CC[C@@H](N(CC2CC2)c2ncnc3[nH]ccc23)C1` as the compound, how does the pIC50 [1] read?
A: Its pIC50 is 5.77.

Q: And the pIC50 [2]?
A: Its pIC50 is 6.80.

Q: With `COc1ccc(S(=O)(=O)N2CC[C@@H](N(C)c3ncnc4[nH]ccc34)C2)cc1` as the compound, how does the pIC50 [1] read?
A: The pIC50 was 5.82.

Q: And the pIC50 [2]?
A: The pIC50 was 7.59.

From ChEMBL document CHEMBL4219073, “Development of selective inhibitors for the treatment of rheumatoid arthritis: (R)-3-(3-(Methyl(7H-pyrrolo[2,3-d]pyrimidin-4-yl)amino)pyrrolidin-1-yl)-3-oxopropanenitrile as a JAK1-selective inhibitor” (Bioorg Med Chem, 2018)
